Test results reported in US20180072997A1, “INHIBITORS OF HUMAN IMMUNODEFICIENCY VIRUS REPLICATION” (ViiV HEATHCARE UK (NO.5) LIMITED, priority 2015, published 2018).

Tests used:
[1] = test system: recombinant NL4-3 virus (Renilla luciferase in nef) in MT-2 cells; experiment: whole plant or invertebrate; format: cell-based, HIV; conditions: Renilla, NL43, MT-2 cells infected for 4-5 days with recombinant NL4-3 Renilla luciferase virus; luciferase activity
Description: HIV cell culture assay—MT-2 cells, 293T cells and the proviral DNA clone of NL4-3 virus were obtained from the NIH AIDS Research and Reference Reagent Program. MT-2 cells were propagated in RPMI 1640 media supplemented with 10% heat inactivated fetal bovine serum (FBS), 100 μg/ml penicillin G and up to 100 units/mL streptomycin. The 293T cells were propagated in DMEM media supplemented with 10% heat inactivated FBS, 100 μg/mL penicillin G and 100 μg/mL streptomycin. A recombinant NL4-3 proviral clone, in which a section of the nef gene was replaced with the Renilla luciferase gene, was used to make the reference virus used in these studies. The recombinant virus was prepared through transfection of the recombinant NL4-3 proviral clone into 293T cells using Transit-293 Transfection Reagent from Mirus Bio LLC (Madison, Wis.). Supernatent was harvested after 2-3 days and the amount of virus present was titered in MT-2 cells using luciferase enzyme activity as a marker by measuring luciferase enzyme activity. Luciferase was quantitated using the EnduRen Live Cell Substrate from Promega (Madison, Wis.). Antiviral activities of compounds toward the recombinant virus were quantified by measuring luciferase activity in MT-2 cells infected for 4-5 days with the recombinant virus in the presence of serial dilutions of the compound.
(Johnson V A, Byington R T. Infectivity Assay. In Techniques in HIV Research. ed. Aldovini A, Walker BD. 71-76. New York: Stockton Press.1990).

[2] = Compound cytotoxicity, XTT-based colorimetric assay; format: cell-based; conditions: human, uninfected MT2 cells, day 4, XTT
Description: Compound cytotoxicity and the corresponding CC50 values were determined using the same protocol as described in the antiviral assay except that uninfected cells were used. Cytotoxicity was assessed on day 4 in uninfected MT2 cells by using a XTT (2,3-bis[2-Methoxy-4-nitro-5-sulfophenyl]-2H-tetrazolium-5-carboxyanilide inner salt)-based colorimetric assay (Sigma-Aldrich, St Louis, Mo.).

Structure (SMILES): COc1ccc(N(C)C(=O)[C@H](Cc2ccccc2)NS(=O)(=O)NC(=O)N[C@@H](Cc2ccccc2)C(=O)N(C)c2ccc3scnc3c2)cc1 [Example 35]
- EC50 [1]: 0.03 µM
- CC50 at 4 days [2]: 99.9 µM

Structure (SMILES): O=C(N[C@@H](Cc1cc(F)cc(F)c1)c1ncccc1Br)NS(=O)(=O)N[C@@H](Cc1cc(F)cc(F)c1)c1ncccc1Br [Example 36]
- EC50 [1]: 7.27 µM
- CC50 at 4 days [2]: 65.3 µM

Structure (SMILES): COc1ccc(N(C)C(=O)[C@H](Cc2ccccc2)NC(=O)Cn2c(=O)n(CC(=O)N[C@@H](Cc3ccccc3)C(=O)N(C)c3ccc(OC)cc3)c3ccccc32)cc1 [Example 37]
- EC50 [1]: 0.07 µM
- CC50 at 4 days [2]: 19.9 µM

Structure (SMILES): COc1ccc(N(C)C(=O)[C@H](Cc2ccccc2)NC(=O)Cc2ccccc2CC(=O)N[C@@H](Cc2ccccc2)C(=O)N(C)c2ccc(OC)cc2)cc1 [Example 38]
- EC50 [1]: 0.55 µM
- CC50 at 4 days [2]: 45 µM

Structure (SMILES): COc1ccc(N(C)C(=O)[C@H](Cc2ccccc2)NC(=O)c2cccc(C(=O)N[C@@H](Cc3ccccc3)C(=O)N(C)c3ccc(OC)cc3)n2)cc1 [Example 39]
- EC50 [1]: 0.95 µM
- CC50 at 4 days [2]: ≥ 33.3 µM

Structure (SMILES): COc1ccc(N(C)C(=O)[C@H](Cc2ccccc2)NC(=O)CCN2CCN(CCC(=O)N[C@@H](Cc3ccccc3)C(=O)N(C)c3ccc(OC)cc3)CC2)cc1 [Example 40]
- EC50 [1]: 0.31 µM
- CC50 at 4 days [2]: 36 µM

Structure (SMILES): COc1ccc(N(C)C(=O)[C@H](Cc2ccccc2)NC(=O)CCSCCC(=O)N[C@@H](Cc2ccccc2)C(=O)N(C)c2ccc(OC)cc2)cc1 [Example 41]
- EC50 [1]: 0.1 µM
- CC50 at 4 days [2]: 23 µM

Structure (SMILES): COc1ccc(N(C)C(=O)[C@H](Cc2ccccc2)NC(=O)Cc2cccc(CC(=O)N[C@@H](Cc3ccccc3)C(=O)N(C)c3ccc(OC)cc3)c2)cc1 [Example 42]
- EC50 [1]: 0.85 µM
- CC50 at 4 days [2]: 40.7 µM

Structure (SMILES): COc1ccc(N(C)C(=O)[C@H](Cc2cc(F)cc(F)c2)NC(=O)Cc2cccc(CC(=O)N[C@@H](Cc3cc(F)cc(F)c3)C(=O)N(C)c3ccc(OC)cc3)c2)cc1 [Example 43]
- EC50 [1]: 0.48 µM
- CC50 at 4 days [2]: 3.7 µM

Structure (SMILES): COc1ccc(N(C)C(=O)[C@H](Cc2ccccc2)NC(=O)NS(=O)(=O)N[C@@H](Cc2cc(F)cc(F)c2)C(=O)N(C)c2ccc(OC)cc2)cc1 [Example 44]
- EC50 [1]: 0.02 µM
- CC50 at 4 days [2]: 67 µM

Structure (SMILES): COc1ccc(N(C)C(=O)[C@H](Cc2cc(F)cc(F)c2)NC(=O)NS(=O)(=O)N[C@@H](Cc2ccccc2)C(=O)N(C)c2ccc(OC)cc2)cc1 [Example 45]
- EC50 [1]: 0.01 µM
- CC50 at 4 days [2]: 38.8 µM

Structure (SMILES): COc1ccc(N(C)C(=O)[C@H](Cc2ccccc2)NC(=O)Cc2ccc(CC(=O)N[C@@H](Cc3ccccc3)C(=O)N(C)c3ccc(OC)cc3)cc2)cc1 [Example 47]
- EC50 [1]: 2.76 µM
- CC50 at 4 days [2]: 11.1 µM

Structure (SMILES): COc1ccc(N(C)C(=O)[C@H](Cc2ccccc2)NC(=O)CN2CCN(CC(=O)N[C@@H](Cc3ccccc3)C(=O)N(C)c3ccc(OC)cc3)C2=O)cc1 [Example 48]
- EC50 [1]: 0.17 µM
- CC50 at 4 days [2]: 30.9 µM

Structure (SMILES): COc1ccc(N(C)C(=O)[C@H](Cc2cc(F)cc(F)c2)NC(=O)c2cccc(C(=O)N[C@@H](Cc3cc(F)cc(F)c3)C(=O)N(C)c3ccc(OC)cc3)c2)cc1 [Example 49]
- EC50 [1]: 0.04 µM
- CC50 at 4 days [2]: 10.8 µM

Structure (SMILES): CN(C(=O)[C@H](Cc1ccccc1)NC(=O)c1cccc(C(=O)N[C@@H](Cc2ccccc2)C(=O)N(C)c2ccc3scnc3c2)c1)c1ccc2scnc2c1 [Example 50]
- EC50 [1]: 0.04 µM
- CC50 at 4 days [2]: 3.7 µM

Structure (SMILES): CN(C(=O)[C@H](Cc1cc(F)cc(F)c1)NC(=O)c1cccc(C(=O)N[C@@H](Cc2cc(F)cc(F)c2)C(=O)N(C)c2ccc3scnc3c2)c1)c1ccc2scnc2c1 [Example 51]
- EC50 [1]: 0.01 µM
- CC50 at 4 days [2]: ≥ 100 µM

Structure (SMILES): COc1ccc(N(C)C(=O)[C@H](Cc2ccccc2)NC(=O)[C@@H]2CC[C@H](C(=O)N[C@@H](Cc3ccccc3)C(=O)N(C)c3ccc(OC)cc3)C2)cc1 [Example 52]
- EC50 [1]: 1.14 µM
- CC50 at 4 days [2]: 22.6 µM

Structure (SMILES): COc1ccc(N(C)C(=O)[C@H](Cc2ccccc2)NC(=O)c2cc(C(=O)O)cc(C(=O)N[C@@H](Cc3ccccc3)C(=O)N(C)c3ccc(OC)cc3)c2)cc1 [Example 55]
- EC50 [1]: 10.1 µM
- CC50 at 4 days [2]: 85.8 µM

Structure (SMILES): COc1ccc(N(C)C(=O)[C@H](Cc2ccccc2)NC(=O)OCCOC(=O)N[C@@H](Cc2ccccc2)C(=O)N(C)c2ccc(OC)cc2)cc1 [Example 56]
- EC50 [1]: 2.6 µM
- CC50 at 4 days [2]: 10.5 µM

Structure (SMILES): COc1ccc(N(C)C(=O)[C@H](Cc2ccccc2)NC(=O)c2cc(C(=O)N[C@@H](Cc3ccccc3)C(=O)N(C)c3ccc(OC)cc3)[nH]n2)cc1 [Example 57]
- EC50 [1]: 1.58 µM
- CC50 at 4 days [2]: 3.5 µM

Structure (SMILES): COc1ccc(N(C)C(=O)[C@H](Cc2ccccc2)NC(=O)c2ccc(C(=O)N[C@@H](Cc3ccccc3)C(=O)N(C)c3ccc(OC)cc3)s2)cc1 [Example 58]
- EC50 [1]: 0.61 µM
- CC50 at 4 days [2]: 3.3 µM

Structure (SMILES): COc1ccc(N(C)C(=O)[C@H](Cc2ccccc2)NC(=O)c2nc[nH]c2C(=O)N[C@@H](Cc2ccccc2)C(=O)N(C)c2ccc(OC)cc2)cc1 [Example 59]
- EC50 [1]: 3.34 µM
- CC50 at 4 days [2]: 11 µM

Structure (SMILES): COc1ccc(N(C)C(=O)[C@H](Cc2ccccc2)NC(=O)Cc2cn(CC(=O)N[C@@H](Cc3ccccc3)C(=O)N(C)c3ccc(OC)cc3)c3ccccc23)cc1 [Example 61]
- EC50 [1]: 0.61 µM
- CC50 at 4 days [2]: 32.6 µM

Structure (SMILES): COc1ccc(N(C)C(=O)[C@H](Cc2ccccc2)NC(=O)[C@H](Cc2ccccc2)NC(=O)N[C@@H](Cc2ccccc2)C(=O)N[C@@H](Cc2ccccc2)C(=O)N(C)c2ccc(OC)cc2)cc1 [Example 62]
- EC50 [1]: 0.49 µM
- CC50 at 4 days [2]: ≥ 100 µM

Structure (SMILES): COc1ccc(N(C)C(=O)[C@H](Cc2ccccc2)NC(=O)CS(=O)(=O)N[C@@H](Cc2ccccc2)C(=O)N(C)c2ccc(OC)cc2)cc1 [Example 63]
- EC50 [1]: 1.09 µM
- CC50 at 4 days [2]: 30.2 µM

Structure (SMILES): COc1ccc(N(C)C(=O)[C@H](Cc2cc(F)cc(F)c2)NC(=O)CS(=O)(=O)N[C@@H](Cc2cc(F)cc(F)c2)C(=O)N(C)c2ccc(OC)cc2)cc1 [Example 64]
- EC50 [1]: 0.38 µM
- CC50 at 4 days [2]: 11.3 µM

Structure (SMILES): CN(C(=O)[C@H](Cc1ccccc1)NC(=O)CS(=O)(=O)N[C@@H](Cc1ccccc1)C(=O)N(C)c1ccc2scnc2c1)c1ccc2scnc2c1 [Example 65]
- EC50 [1]: 0.32 µM
- CC50 at 4 days [2]: 34.6 µM

Structure (SMILES): COc1ccc(N(C)C(=O)[C@H](Cc2ccccc2)NC(=O)CNC(=O)NCC(=O)N[C@@H](Cc2ccccc2)C(=O)N(C)c2ccc(OC)cc2)cc1 [Example 68]
- EC50 [1]: 1.42 µM
- CC50 at 4 days [2]: 69.3 µM

Structure (SMILES): COc1ccc(N(C)C(=O)[C@H](Cc2cc(F)cc(F)c2)NC(=O)Cn2c(=O)n(CC(=O)N[C@@H](Cc3cc(F)cc(F)c3)C(=O)N(C)c3ccc(OC)cc3)c3ccccc32)cc1 [Example 69]
- EC50 [1]: 0.02 µM
- CC50 at 4 days [2]: 11.8 µM

Structure (SMILES): NC(=O)c1cc(-c2cccnc2[C@H](Cc2cc(F)cc(F)c2)NC(=O)NS(=O)(=O)N[C@@H](Cc2cc(F)cc(F)c2)c2ncccc2-c2ccc(F)c(C(N)=O)c2)ccc1F [Example 70]
- EC50 [1]: 0.15 µM
- CC50 at 4 days [2]: ≥ 100 µM

Structure (SMILES): COc1ccc(N(C)C(=O)[C@H](Cc2ccccc2)NC(=O)Cn2c(=O)n(CC(=O)N[C@@H](Cc3ccccc3)C(=O)N(C)c3ccc(OC)cc3)c3cc(Cl)ccc32)cc1 [Example 71]
- EC50 [1]: 0.08 µM
- CC50 at 4 days [2]: 6.5 µM

Structure (SMILES): COc1ccc(N(C)C(=O)[C@H](Cc2cc(F)cc(F)c2)NC(=O)Cn2c(=O)n(CC(=O)N[C@@H](Cc3cc(F)cc(F)c3)C(=O)N(C)c3ccc(OC)cc3)c3cc(Cl)ccc32)cc1 [Example 72]
- EC50 [1]: 0.04 µM
- CC50 at 4 days [2]: 4.4 µM
